The subject of assay [1] is Human immunodeficiency virus 1. As to the kind of experiment: Inhibitory concentration against HIV-1 strain 111B in acutely infected C8166 T cells. The format is functional, organism-based. Particulars: Human immunodeficiency virus 1, C8166.
The test system of assay [2] is C8166. Nature of the assay: Inhibitory concentration against HIV-2 rod strain in acutely infected C8166 T cells. To be noted: Homo sapiens. The format is functional, cell-based.
Assay [3] has as its target T1, Human immunodeficiency virus type 1 protease (Human immunodeficiency virus 1, UniProt Q72874). Nature of the assay: Inhibitory concentration against recombinant HIV-1 111B protease expressed from Escherichia coli was tested by HPLC based assay.
The target of assay [4] is T1, Human immunodeficiency virus type 1 protease. As to the kind of experiment: binding affinity against HIV-1 111B strain in protease.
Assay [5] has the same target. Nature of the assay: Inhibitory concentration against recombinant HIV-1 protease expressed in Escherichia coli was tested by HPLC based assay.
The target is the same in assay [6]. As to the kind of experiment: binding affinity against HIV-1 protease.

pEC50, pIC50, pKi: −log10 of the molar value.

The source of these data is ChEMBL document CHEMBL1130086, “Potent HIV protease inhibitors containing a novel (hydroxyethyl)amide isostere” (J Med Chem, 1997).

In general, pEC50 refers to the negative decadic logarithm of the EC50, by convention in mol/L. Low values mean a high EC50, high ones a low EC50. As usually defined, the pIC50 is the negative decadic logarithm of the IC50, by convention in mol/L. The pKi is −log10 of the Ki, conventionally taken in molar units.

Take `CC(C)[C@H](NC(=O)c1ccc2ccccc2n1)C(=O)N[C@@H](Cc1ccccc1)[C@H](O)CN1CC[C@@H](OCc2ccncc2)C[C@H]1C(=O)NC(C)(C)C`: the negative logarithm of the EC50 (pEC50) in assay [1] is 8.30; in assay [2] it was 7.60. Moreover, the negative logarithm of the IC50 (pIC50) in assay [3] is 8.40. The compound also showed a negative-log Ki (pKi) in assay [4] of 10.51.

As to `CCC(CC)NC(=O)C[C@@H](C(=O)NC[C@@H](O)[C@H](Cc1ccccc1)NC(=O)[C@@H](NC(=O)c1cnc2ccccc2n1)[C@H](C)O)C(C)(C)C`, in assay [1], the pEC50 was 7.89. In assay [5], the pIC50 was 8.52. Compound `CCC(CC)NC(=O)C[C@@H](C(=O)NC[C@@H](O)[C@H](Cc1ccccc1)NC(=O)[C@@H](NC(=O)c1ccc2ccccc2n1)[C@H](C)O)C(C)(C)C` had a pEC50 in assay [1] of 8.15. In assay [5], the pIC50 is 8.44.

In turn, `CCC(CC)NC(=O)C[C@@H](C(=O)NC[C@@H](O)[C@H](Cc1ccccc1)NC(=O)[C@@H](NC(=O)OCc1ccccc1)[C@H](C)O)C(C)(C)C` gave a pEC50 in assay [1] of 6.78. The negative-log IC50 (pIC50) in assay [5] was 8.09.

Take `CC(C)[C@H](NC(=O)OCc1ccccc1)C(=O)N[C@@H](Cc1ccccc1)[C@H](O)CN1CCCC[C@H]1C(=O)NC(C)(C)C`: the pIC50 in assay [5] is 7.21.

As for `CC(C)[C@H](NC(=O)OCc1ccccc1)C(=O)N[C@@H](Cc1ccccc1)[C@H](O)CNC(=O)C[C@H](C(=O)NC(C)(C)C)C(C)(C)C`, in assay [5], the pIC50 was 5.31. For the compound `CCC(CC)NC(=O)C[C@@H](C(=O)NC[C@@H](O)[C@H](Cc1ccccc1)NC(=O)[C@@H](NC(=O)c1ccc2ccccc2n1)C(C)C)C(C)(C)C`, the negative-log EC50 (pEC50) in assay [1] was 8.43. Also, the negative-log Ki (pKi) in assay [6] was 11.12. Further, the pIC50 in assay [5] was 8.60.

Take `CC(C)[C@H](NC(=O)OCc1ccccc1)C(=O)N[C@@H](Cc1ccccc1)[C@H](O)CNC(=O)[C@@H](CC(=O)NC(C)(C)C)C(C)(C)C`: the pIC50 in assay [5] was 7.60.

With `CC(C)(C)[C@@H](CC(=O)Nc1ccccc1)C(=O)NC[C@@H](O)[C@H](Cc1ccccc1)NC(=O)OCc1ccccc1`, the negative-log IC50 (pIC50) in assay [5] was 7.85. For `CC(C)[C@H](NC(=O)OCc1ccccc1)C(=O)N[C@@H](Cc1ccccc1)[C@H](O)CNC(=O)C1CCCC[C@H]1C(=O)NC(C)(C)C` (some centres undefined), in assay [5], the pIC50 was 6.85. Turning to `CC(C)(C)[C@@H](CC(=O)NC1CCCCC1)C(=O)NC[C@@H](O)[C@H](Cc1ccccc1)NC(=O)OCc1ccccc1`, in assay [5], the pIC50 is 6.87. In turn, `CCC(CC)NC(=O)C[C@@H](C(=O)NC[C@@H](O)[C@H](Cc1ccccc1)NC(=O)[C@H](CC(N)=O)NC(=O)c1ccc2ccccc2n1)C(C)(C)C` showed a pEC50 in assay [1] of 7.96. Also, in assay [5], the pIC50 is 8.66. Turning to `CCC(CC)NC(=O)C[C@@H](C(=O)NC[C@@H](O)[C@H](Cc1ccccc1)NC(=O)[C@@H](NC(=O)c1cnc2ccccc2n1)C(C)C)C(C)(C)C`, the negative-log EC50 (pEC50) in assay [1] is 8.24. The pIC50 in assay [5] was 8.66. As for `CC(C)[C@H](NC(=O)OCc1ccccc1)C(=O)N[C@@H](Cc1ccccc1)[C@H](O)CNC(=O)CCC(=O)NC(C)(C)C`, in assay [5], the pIC50 was 5.08.

In the case of `CCCC(CCC)NC(=O)C[C@@H](C(=O)NC[C@@H](O)[C@H](Cc1ccccc1)NC(=O)OCc1ccccc1)C(C)(C)C`, the negative-log IC50 (pIC50) in assay [5] was 7.41. In assay [1], `CC(C)[C@H](NC(=O)OCc1ccccc1)C(=O)N[C@@H](Cc1ccccc1)[C@H](O)CNC(=O)[C@H](CC(=O)NC(C)(C)C)C(C)(C)C` gave a negative logarithm of the EC50 (pEC50) of 7.82. Further, the pIC50 in assay [5] was 8.52. In assay [1], `CCC(CC)NC(=O)C[C@@H](C(=O)NC[C@@H](O)[C@H](Cc1ccccc1)NC(=O)[C@@H](NC(=O)OCc1ccccc1)C(C)C)C(C)(C)C` had a negative-log EC50 (pEC50) of 8.03. Besides, the negative-log IC50 (pIC50) in assay [5] is 8.54. On to `CCC(CC)NC(=O)C[C@@H](C(=O)NC[C@@H](O)[C@H](Cc1ccccc1)NC(=O)OCc1ccccc1)C(C)(C)C`, for which the pIC50 in assay [5] is 7.82.

For `CC(C)[C@H](NC(=O)OCc1ccccc1)C(=O)N[C@@H](Cc1ccccc1)[C@H](O)CNC(=O)C[C@@H](C(=O)NC(C)(C)C)C(C)(C)C`, the negative-log IC50 (pIC50) in assay [5] is 6.90.

For the compound `CC(C)(C)NC(=O)C[C@@H](C(=O)NC[C@@H](O)[C@H](Cc1ccccc1)NC(=O)OCc1ccccc1)C(C)(C)C`, the pIC50 in assay [5] was 7.72. `CCC(CC)NC(=O)C[C@@H](C(=O)NC[C@@H](O)[C@H](Cc1ccccc1)NC(=O)[C@H](CC(N)=O)NC(=O)OCc1ccccc1)C(C)(C)C` showed a negative logarithm of the EC50 (pEC50) in assay [1] of 6.90. Moreover, the negative logarithm of the IC50 (pIC50) in assay [5] was 8.42. Take `CC(C)[C@H](NC(=O)OCc1ccccc1)C(=O)N[C@@H](Cc1ccccc1)[C@@H](O)CNC(=O)[C@H](CC(=O)NC(C)(C)C)C(C)(C)C`: in assay [5], the pIC50 is 7.30. The compound `CCC(CC)NC(=O)C[C@@H](C(=O)NC[C@@H](O)[C@H](Cc1ccccc1)NC(=O)[C@H](CC(N)=O)NC(=O)c1cnc2ccccc2n1)C(C)(C)C` gave a negative-log EC50 (pEC50) in assay [1] of 7.46. Moreover, the pIC50 in assay [5] was 8.72. As to `CC(C)C(NC(=O)C[C@@H](C(=O)NC[C@@H](O)[C@H](Cc1ccccc1)NC(=O)OCc1ccccc1)C(C)(C)C)C(C)C`, the negative logarithm of the IC50 (pIC50) in assay [5] was 7.24. Regarding `CC(C)NC(=O)C[C@@H](C(=O)NC[C@@H](O)[C@H](Cc1ccccc1)NC(=O)OCc1ccccc1)C(C)(C)C`, the pIC50 in assay [5] was 7.72.
